Measured values taken from patent publication US7414047B2, “Piperazinyl and diazapanyl benzamides and benzthioamides” (Janssen Pharmaceutica N.V., priority 2002, dated 2008).
Structures can show the parent of a compound that is named as a salt.

Target: T1, human histamine H3 receptor (Homo sapiens, UniProt Q9Y5N1)
T1 construct: One microgram of supercoiled H3 receptor cDNA was added to the cells and mixed; expressed in transfected cells; membranes prepared from cell pellets
Assay: {3H}-N-methylhistamine binding
Experimental: Transfection of Cells with Human Histamine Receptor
A 10 cm tissue culture dish with a confluent monolayer of SK-N-MC cells was split two days prior to transfection. Using sterile technique the media was removed and the cells were detached from the dish by the addition of trypsin. One fifth of the cells were then placed onto a new 10 cm dish. Cells were grown in a 37° C. incubator with 5% CO2 in Minimal Essential Media Eagle with 10%. Fetal Bovine Serum. After two days cells were approximately 80% confluent. These were removed from the dish with trypsin and pelleted in a clinical centrifuge. The pellet was then re-suspended in 400 μL complete media and transferred to an electroporation cuvette with a 0.4 cm gap between the electrodes. One microgram of supercoiled H3 receptor cDNA was added to the cells and mixed. The voltage for the electroporation was set at 0.25 kV, the capacitance was set at 960 μF. After electroporation the cells were diluted into 10 mL complete media and plated onto four 10 cm dishes. Because of the variability in the efficiency of electroporation, four different concentrations of cells were plated. The ratios used were; 1:20, 1:10, 1:5, with the remainder of the cells being added to the fourth dish. […] After 10 days dishes were analyzed for surviving colonies of cells. Dishes with well-isolated colonies were used. Cells from individual colonies were isolated and tested. SK-N-MC cells were used because they give efficient coupling for inhibition of adenylate cyclase. The clones that gave the most robust inhibition of adenylate cyclase in response to histamine were used for further study.
{^3H}-N-methylhistamine Binding
Cell pellets from histamine H3 receptor-expressing SK-N-MC cells were homogenized in 20 mM TrisHCl/0.5 mM EDTA. Supernatants from an 800 g spin were collected, recentrifuged at 30,000 g for 30 min. Pellets were re-homogenized in 50 mM Tris/5 mM EDTA (pH 7.4). […] Filters were dried, added to 4 mL scintillation cocktail and then counted on a liquid scintillation counter. Non-specific binding was defined with 10 μM histamine.

T1 sequence (Q9Y5N1 whole entry): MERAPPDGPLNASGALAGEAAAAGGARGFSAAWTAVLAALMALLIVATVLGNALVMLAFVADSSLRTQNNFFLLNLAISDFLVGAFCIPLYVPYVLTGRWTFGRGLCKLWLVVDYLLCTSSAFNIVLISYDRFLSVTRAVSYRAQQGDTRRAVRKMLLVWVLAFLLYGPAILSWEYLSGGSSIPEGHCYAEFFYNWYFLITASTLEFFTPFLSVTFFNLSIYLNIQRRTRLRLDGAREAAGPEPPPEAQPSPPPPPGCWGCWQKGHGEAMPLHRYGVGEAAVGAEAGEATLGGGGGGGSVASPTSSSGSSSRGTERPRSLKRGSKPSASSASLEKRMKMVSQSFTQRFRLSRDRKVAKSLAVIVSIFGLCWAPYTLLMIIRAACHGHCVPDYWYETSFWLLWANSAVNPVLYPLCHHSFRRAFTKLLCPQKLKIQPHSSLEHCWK

| Structure (SMILES) | Ki [nM] |
| --- | --- |
| CC(C)N1CCN(C(=O)c2ccc(CNc3ccc(C(F)(F)F)nc3)cc2)CC1 [Example 52, (4-Isopropryl-piperazin-1-yl)-{4-{(6-trifluoromethyl-pyridin-3-ylamino)-methyl}-phenyl}-methanone dihydrochloride] | 14 |
| CCC(CC)N1CCN(C(=O)c2ccc(CN3CCC4CCCCC4C3)cc2)CC1 (centres unmarked) [Example 22, {4-(1-Ethyl-propyl)-piperazin-1-yl}-{4-(decahydro-isoguinolin-2-ylmethyl)-phenyl}-methanone] | 2 |
| CCC(CC)N1CCN(C(=O)c2ccc(CN3CCCCCC3)cc2)CC1 [Example 21, (4-Azepan-1-ylmethyl-phenyl)-{4-(1-ethyl-propyl)-piperazin-1-yl}-methanone] | 2 |
| COCCNCc1ccc(C(=O)N2CCN(C(C)C)CC2)cc1 [Example 70, (4-Isopropyl-piperazin-1-yl)-{4-[(2-methoxy-ethylamino)-methyl]-phenyl}-methanone] | 2 |
| CC(C)N1CCN(C(=O)c2cccc(CN3CCCCC3)c2)CC1 [Example 39, (4-Isopropyl-piperazin-1-yl)-(3-piperidin-1-ylmethyl-phenyl)-methanone] | 35 |
| CC(C)N1CCN(C(=O)c2ccc(CN3CCSCC3)cc2)CC1 [Example 67, (4-Isopropyl-piperazin-1-yl)-(4-thiomorpholin-4-ylmethyl-phenyl)-methanone] | 2 |
| CC(C)N1CCN(C(=O)c2ccc(CNc3ccc(C(F)(F)F)cn3)cc2)CC1 [Example 55, (4-Isopropyl-piperazin-1-yl)-{4-{(5-trifluoromethyl-pyridin-2-ylamino)-methyl}-phenyl}-methanone dihydrochloride] | 49 |
| CCCCCCC(C)N1CCN(C(=O)c2ccc(CN3CCOCC3)cc2)CC1 (centres unmarked) [Example 32, {4-(1-Methyl-heptyl)-piperazin-1-yl}-(4-morpholin-4-ylmethyl-phenyl)-methanone] | 130 |
| CCC(C)N1CCN(C(=O)c2ccc(CNc3ccccc3)cc2)CC1 (centres unmarked) [Example 29, (4-sec-Butyl-piperazin-1-yl)-(4-phenylaminomethyl-phenyl)-methanone] | 38 |
| CN1CCN(C(=O)c2ccc(CN3CCOCC3)cc2)CC1 [Example 43, (4-Methyl-piperazin-1-yl)-(4-morpholin-4-ylmethyl-phenyl)-methanone dihydrochloride] | 22 |
| CCN(CC)Cc1ccc(C(=O)N2CCN(C(C)C)CC2)cc1 [Example 57, (4-Diethylaminomethyl-phenyl)-(4-isopropyl-piperazin-1-yl)-methanone dihydrochloride] | 6 |
| CC(C)N1CCN(C(=O)c2ccc(CN3CCCC(C(F)(F)F)C3)cc2)CC1 (centres unmarked) [Example 56, (4-Isopropyl-piperazin-1-yl)-{4-(3-trifluoromethyl-piperidin-1-ylmethyl)-phenyl}-methanone dihydrochloride] | 1 |
| CC(C)N1CCN(C(=O)c2ccc(CNc3ccc(Cl)cn3)cc2)CC1 [Example 53, {4-{(5-Chloro-pyridin-2-ylamino)-methyl}-phenyl}-4-isopropyl-piperazin-1-yl)-methanone dihydrochloride] | 30 |
| CCCCN1CCN(C(=O)c2ccc(CNc3ccc(C(F)(F)F)cc3)cc2)CC1 [Example 31, (4-Butyl-piperazin-1-yl)-{4-{(4-trifluoromethyl-phenylamino)-methyl}-phenyl}-methanone] | 630 |
| CCC(CC)N1CCN(C(=O)c2ccc(CNc3ccccc3)cc2)CC1 [Example 45, {4-(1-Ethyl-propyl)-piperazin-1-yl}-(4-phenylaminomethyl-phenyl)-methanone dihydrochloride] | 54 |
| CC(C)N1CCN(C(=O)c2ccc(CN3CCCC3)cc2)CC1 [Example 61, (4-Isopropyl-piperazin-1-yl)-(4-pyrrolidin-1-ylmethyl-phenyl)-methanone dihydrochloride] | 1 |

| Structure (SMILES) | Ki [nM] |
| --- | --- |
| CCC(C)N1CCN(C(=O)c2ccc(CN3CCCCCC3)cc2)CC1 (centres unmarked) [Example 23, (4-Azepan-1-ylmethyl-phenyl)-(4-sec-butyl-piperazin-1-yl)-methanone] | 0.9 |
| CCCCN1CCN(C(=O)c2ccc(CN3CCOCC3)cc2)CC1 [Example 37, (4-Butyl-piperazin-1-yl)-(4-morpholin-4-ylmethyl-phenyl)-methanone] | 9 |
| CC(C)N1CCN(C(=O)c2ccc(CNc3ccccc3)cc2)CC1 [Example 59, (4-Isopropyl-piperazin-1-yl)-(4-phenylaminomethyl-phenyl)-methanone dihydrochloride] | 23 |
| CCCCN1CCN(C(=O)c2ccc(CN(C)C)cc2)CC1 [Example 30, (4-Butyl-piperazin-1-yl)-(4-dimethylaminomethyl-phenyl)-methanone] | 18 |
| CCCCCCC(C)N1CCN(C(=O)c2ccc(CN3CCCCC3)cc2)CC1 (centres unmarked) [Example 33, {4-(1-Methyl-heptyl)-piperazin-1-yl}-(4-piperidin-1-ylmethyl-phenyl)-methanone] | 52 |
| CCC(CC)N1CCN(C(=O)c2ccc(CNc3ccc(C(F)(F)F)cc3)cc2)CC1 [Example 47, {4-(1-Ethyl-propyl)-piperazin-1-yl}-{-{4-{(4-trifluoromethyl-phenylamino)-methyl}-phenyl}-methanone dihydrochloride] | 81 |
| CCC(C)N1CCN(C(=O)c2ccc(CN3CCCCC3)cc2)CC1 (centres unmarked) [Example 28, (4-sec-Butyl-piperazin-1-yl)-(4-piperidin-1-ylmethyl-phenyl)-methanone] | 0.9 |
| CCC(C)N1CCN(C(=O)c2ccc(CN3CCCC3)cc2)CC1 (centres unmarked) [Example 25, (4-sec-Butyl-piperazin-1-yl)-(4-pyrrolidin-1-ylmethyl-phenyl)-methanone] | 1 |
| CC(C)N1CCN(C(=O)c2ccc(CN3CCOCC3)cc2)CC1 [Example 40] | 3 |
| CN1CCN(C(=O)c2cccc(CN3CCC(Cc4ccccc4)CC3)c2)CC1 [Example 42, {3-(4-Benzyl-piperidin-1-ylmethyl)-phenyl}-(4-methyl-piperazin-1-yl)-methanone] | 800 |
| CCC(CC)N1CCN(C(=O)c2ccc(CN3CCCCC3)cc2)CC1 [Example 27, {4-(1-Ethyl-propyl)-piperazin-1-yl}-(4-piperidin-1-ylmethyl-phenyl)-methanone] | 0.4 |
| O=C(c1ccc(CN2CCCCC2)cc1)N1CCN(C2CCCCC2)CC1 [Example 66, (4-Cyclohexyl-piperazin-1-yl)-(4-piperidin-1-ylmethyl-phenyl)-methanone] | 1 |
| CC(C)N1CCN(C(=O)c2ccc(CN3CCCCCC3)cc2)CC1 [Example 60, (4-Azepan-1-ylmethyl-phenyl)-(4-isopropyl-piperazin-1-yl)-methanone dihydrochloride] | 1 |
| CC(C)N1CCN(C(=O)c2ccc(CN(C)C)cc2)CC1 [Example 62, (4-Dimethylaminomethyl-phenyl)-(4-isopropyl-piperazin-1-yl)-methanone dihydrochloride] | 5 |
| COCC(C)NCc1ccc(C(=O)N2CCN(C(C)C)CC2)cc1 (centres unmarked) [Example 72, (4-Isopropyl-piperazin-1-yl)-{4-[(2-methoxy-1-methyl-ethylamino)-methyl]-phenyl}-methanone] | 3 |
| CC(C)N1CCN(C(=O)c2ccc(CNc3ccccn3)cc2)CC1 [Example 71, (4-Isopropyl-piperazin-1-yl)-[4-(pyridin-2-ylaminomethyl)-phenyl]-methanone] | 4 |
